Assay results reported in the supplement of paper PMC10307832.

Legend:
Assay in all cases: relative viability (nuclei count vs DMSO), 5 days (fraction); higher = more cells survive
[1] = test system: NCI-H322M
How it was run: (§1)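 Lung cancer cell lines, seeded in 1536-well plates, were treated the following day by pin tool with a single drug or with five library-drug doses (not always all listed) in √10 steps on top of a fixed anchor-drug dose. Cells were fixed and nuclei stained in one step after 5 days, and nuclei were counted. Relative viability is the nuclei count for treated wells divided by that for vehicle wells, reported as medians of duplicate plates.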

[2] = test system: CAL-12T
How it was run: as §1

[3] = test system: COR-L 105
How it was run: as §1

[4] = test system: NCI-H2023
How it was run: as §1

[5] = test system: ChaGo-K-1
How it was run: as §1

[6] = test system: HCC-15
How it was run: as §1

[7] = test system: NCI-H2085
How it was run: as §1

[8] = test system: HOP-62
How it was run: as §1

[9] = test system: NCI-H1975
How it was run: as §1

[10] = test system: ABC-1
How it was run: as §1

[11] = test system: NCI-H1666
How it was run: as §1

[12] = test system: EMC-BAC-2
How it was run: as §1

[13] = test system: NCI-H1915
How it was run: as §1

[14] = test system: UMC-11
How it was run: as §1

[15] = test system: NCI-H3122
How it was run: as §1

[16] = test system: NCI-H1755
How it was run: as §1

[17] = test system: NCI-H441
How it was run: as §1

[18] = test system: NCI-H2126
How it was run: as §1

[19] = test system: HCC-78
How it was run: as §1

[20] = test system: LXF-289
How it was run: as §1

[21] = test system: NCI-H358
How it was run: as §1

[22] = test system: NCI-H1993
How it was run: as §1

[23] = test system: EPLC-272H
How it was run: as §1

## C=C1C(=O)O[C@@H](CCCCCCCC)[C@@H]1C(=O)O [C-75] + CS(=O)(=O)N1CCN(Cc2cc3nc(-c4cccc5[nH]ncc45)nc(N4CCOCC4)c3s2)CC1 [Pictilisib] (partner 1 µM)
[1]; first compound 0.08 µM
  relative viability: 0.563
[1]; first compound 0.253 µM
  relative viability: 0.674
[1]; first compound 0.8 µM
  relative viability: 0.514
[1]; first compound 2.53 µM
  relative viability: 0.528
[1]; first compound 8 µM
  relative viability: 0.489
[2]; first compound 0.08 µM
  relative viability: 0.58
[2]; first compound 0.253 µM
  relative viability: 0.624
[2]; first compound 0.8 µM
  relative viability: 0.306
[2]; first compound 2.53 µM
  relative viability: 0.292
[2]; first compound 8 µM
  relative viability: 0.486
[3]; first compound 0.08 µM
  relative viability: 0.437
[3]; first compound 0.253 µM
  relative viability: 0.422
[3]; first compound 0.8 µM
  relative viability: 0.469
[3]; first compound 2.53 µM
  relative viability: 0.432
[3]; first compound 8 µM
  relative viability: 0.343
[4]; first compound 0.08 µM
  relative viability: 0.239
[4]; first compound 0.253 µM
  relative viability: 0.29
[4]; first compound 0.8 µM
  relative viability: 0.203
[4]; first compound 2.53 µM
  relative viability: 0.311
[4]; first compound 8 µM
  relative viability: 0.262
[5]; first compound 0.08 µM
  relative viability: 0.431
[5]; first compound 0.253 µM
  relative viability: 0.749
[5]; first compound 0.8 µM
  relative viability: 0.594
[5]; first compound 2.53 µM
  relative viability: 0.507
[5]; first compound 8 µM
  relative viability: 0.771
[6]; first compound 0.08 µM
  relative viability: 0.739
[6]; first compound 0.253 µM
  relative viability: 0.761
[6]; first compound 0.8 µM
  relative viability: 0.654
[6]; first compound 2.53 µM
  relative viability: 0.666
[6]; first compound 8 µM
  relative viability: 0.725
[7]; first compound 0.08 µM
  relative viability: 0.504
[7]; first compound 0.253 µM
  relative viability: 0.543
[7]; first compound 0.8 µM
  relative viability: 0.433
[7]; first compound 2.53 µM
  relative viability: 0.339
[7]; first compound 8 µM
  relative viability: 0.413
[8]; first compound 0.08 µM
  relative viability: 0.732
[8]; first compound 0.253 µM
  relative viability: 0.927
[8]; first compound 0.8 µM
  relative viability: 0.788
[8]; first compound 2.53 µM
  relative viability: 0.73
[8]; first compound 8 µM
  relative viability: 0.545
[9]; first compound 0.08 µM
  relative viability: 0.286
[9]; first compound 0.253 µM
  relative viability: 0.282
[9]; first compound 0.8 µM
  relative viability: 0.278
[9]; first compound 2.53 µM
  relative viability: 0.326
[9]; first compound 8 µM
  relative viability: 0.347
[10]; first compound 0.08 µM
  relative viability: 0.733
[10]; first compound 0.253 µM
  relative viability: 0.87
[10]; first compound 0.8 µM
  relative viability: 0.659
[10]; first compound 2.53 µM
  relative viability: 0.646
[10]; first compound 8 µM
  relative viability: 0.469
[11]; first compound 0.08 µM
  relative viability: 0.49
[11]; first compound 0.253 µM
  relative viability: 0.555
[11]; first compound 0.8 µM
  relative viability: 0.295
[11]; first compound 2.53 µM
  relative viability: 0.41
[11]; first compound 8 µM
  relative viability: 0.346
[12]; first compound 0.08 µM
  relative viability: 0.51
[12]; first compound 0.253 µM
  relative viability: 0.491
[12]; first compound 0.8 µM
  relative viability: 0.51
[12]; first compound 2.53 µM
  relative viability: 0.521
[12]; first compound 8 µM
  relative viability: 0.587
[13]; first compound 0.08 µM
  relative viability: 0.953
[13]; first compound 0.253 µM
  relative viability: 1.08
[13]; first compound 0.8 µM
  relative viability: 0.857
[13]; first compound 2.53 µM
  relative viability: 0.828
[13]; first compound 8 µM
  relative viability: 0.763
[14]; first compound 0.08 µM
  relative viability: 0.74
[14]; first compound 0.253 µM
  relative viability: 0.899
[14]; first compound 0.8 µM
  relative viability: 0.704
[14]; first compound 2.53 µM
  relative viability: 0.702
[14]; first compound 8 µM
  relative viability: 0.75
[15]; first compound 0.08 µM
  relative viability: 0.635
[15]; first compound 0.253 µM
  relative viability: 0.753
[15]; first compound 0.8 µM
  relative viability: 0.545
[15]; first compound 8 µM
  relative viability: 0.555
[16]; first compound 0.08 µM
  relative viability: 0.461
[16]; first compound 0.253 µM
  relative viability: 0.448
[16]; first compound 0.8 µM
  relative viability: 0.389
[16]; first compound 2.53 µM
  relative viability: 0.339
[16]; first compound 8 µM
  relative viability: 0.402
[17]; first compound 0.08 µM
  relative viability: 0.473
[17]; first compound 0.253 µM
  relative viability: 0.536
[17]; first compound 0.8 µM
  relative viability: 0.403
[17]; first compound 2.53 µM
  relative viability: 0.418
[17]; first compound 8 µM
  relative viability: 0.38
[18]; first compound 0.08 µM
  relative viability: 0.465
[18]; first compound 0.253 µM
  relative viability: 0.597
[18]; first compound 0.8 µM
  relative viability: 0.471
[18]; first compound 2.53 µM
  relative viability: 0.506
[18]; first compound 8 µM
  relative viability: 0.469
[19]; first compound 0.08 µM
  relative viability: 0.216
[19]; first compound 0.253 µM
  relative viability: 0.217
[19]; first compound 0.8 µM
  relative viability: 0.206
[19]; first compound 2.53 µM
  relative viability: 0.198
[19]; first compound 8 µM
  relative viability: 0.22
[20]; first compound 0.08 µM
  relative viability: 0.77
[20]; first compound 0.253 µM
  relative viability: 0.836
[20]; first compound 0.8 µM
  relative viability: 0.76
[20]; first compound 2.53 µM
  relative viability: 0.771
[20]; first compound 8 µM
  relative viability: 0.73
[21]; first compound 0.08 µM
  relative viability: 0.365
[21]; first compound 0.253 µM
  relative viability: 0.348
[21]; first compound 0.8 µM
  relative viability: 0.312
[21]; first compound 2.53 µM
  relative viability: 0.326
[21]; first compound 8 µM
  relative viability: 0.361
[22]; first compound 0.08 µM
  relative viability: 0.727
[22]; first compound 0.253 µM
  relative viability: 0.938
[22]; first compound 0.8 µM
  relative viability: 0.842
[22]; first compound 2.53 µM
  relative viability: 0.801
[22]; first compound 8 µM
  relative viability: 0.914
[23]; first compound 0.08 µM
  relative viability: 0.336
[23]; first compound 0.253 µM
  relative viability: 0.308
[23]; first compound 0.8 µM
  relative viability: 0.298
[23]; first compound 2.53 µM
  relative viability: 0.265
[23]; first compound 8 µM
  relative viability: 0.232
